Measured values as given in patent US11213527B2, “Inhibitory effect of low molecular weight compound on cancer and fibrosis” (NATIONAL UNIVERSITY CORPORATION TOTTORI UNIVERSITY, priority 2014, dated 2022).

Assays:
[1] = test system: liver cancer cell line HLF (CD90); experiment: FACS analysis of CD90-expressing cells; assay type: cell-based, human; details: 0.5 μM 5-FU, 50 μM IC-2, two days, DMSO 21.8%
Protocol: A liver cancer cell line HLF was seeded at 1.5×10^6 cells/dish on 10-cm dishes. Next, the cells were cultured at 37° C. and 5% CO2. After 24 hours, 1% DSMO, 0.5 μM 5-FU, or 50 μM IC-2 was added thereto and the cells were further incubated. Two days after the chemical treatment, the cells were harvested. Then, the cells were blocked in 0.5% BSA/0.5% FBS/2 mM EDTA/PBS. Subsequently, 5 μL of an APC-labeled mouse anti-human CD90 antibody (BD Biosciences, San Jose, Calif., USA) was added to 500 μL of a cell suspension and the resulting mixture was resuspended and incubated at 4° C. for 10 min to carry out a primary antibody reaction. After the antibody reaction, the cells were washed twice with 0.5% FBS/2 mM EDTA/PBS and once with 5% FBS/2 mM EDTA/DMEM. Next, the cells were resuspended in 500 μL of 5% FBS/2 mM EDTA/PBS. Then, 1 μg/mL of propidium iodide was added thereto. After that, the mixture was made to pass through a tube with a 40-μm mesh filter. Finally, a Beckman Coulter-MoFlo XDP was used to analyze CD90-expressing cells. […] The concentration of IC-2 was determined on the basis of a concentration at which a Wnt/β-catenin signal was inhibited.

[2] = test system: liver cancer cell line HepG2 (CD133); experiment: FACS analysis of CD133-expressing cells; assay type: cell-based, human; details: 0.5 μM 5-FU, 50 μM IC-2, two days, DMSO 57.1%
Protocol: (§1) A liver cancer cell line HepG2 was seeded at 1.5×10^6 cells/dish on 10-cm dishes. Next, the cells were cultured at 37° C. and 5% CO2. After 24 hours, 1% DSMO, 0.5 μM 5-FU, or 50 μM IC-2 was added thereto and the cells were further incubated. Then, the cells were harvested at two days after the chemical treatment. Meanwhile, the cells were blocked in 0.5% BSA/0.5% FBS/2 mM EDTA/PBS. Subsequently, 50 μL of an anti-human CD133 monoclonal antibody (Miltenyi Biotec) was added to 500 μL of a cell suspension and the resulting mixture was resuspended and incubated at 4° C. for 10 min to carry out a primary antibody reaction. After the primary antibody reaction, the cells were washed 3 times with 1 mL of PBS. After 1.0 μg of an Alexa 488-labeled goat anti-mouse IgG antibody (Life Technologies Corp., Carlsbad, Calif., USA) was added, the mixture was resuspended and a secondary antibody reaction was performed in a dark room for 10 min at 4° C. Thereafter, the cells were washed twice with 5% FBS/2 mM EDTA/PBS and once with 5% FBS/2 mM EDTA/DEME. Next, the cells were resuspended in 500 μL of 5% FBS/2 mM EDTA/PBS. Then, 1 μg/mL of propidium iodide was added thereto. After that, the mixture was made to pass through a tube with a 40-μm mesh filter. Finally, a Beckman Coulter-MoFlo XDP was used to analyze CD133-expressing cells.

[3] = test system: liver cancer cell line HepG2 (EpCAM); experiment: FACS analysis of EpCAM-expressing cells; assay type: cell-based, human; details: 0.5 μM 5-FU, 50 μM IC-2, two days, DMSO 76.2%
Protocol: as §1, with “Subsequently, 0.3” for “Subsequently, 50”, “anti-human EpCAM” for “anti-human CD133”, “antibody (Cell Signaling Technology Inc., Danvers, Mass., USA)” for “antibody (Miltenyi Biotec)”, “analyze EpCAM-expressing” for “analyze CD133-expressing”

CD44-positive HuH7 cells = experiment: Liver cancer model mice, CD44-positive HuH7 cells subcutaneously transplanted; assay type: in vivo; details: for change in the body weight: 50 mg/kg IC-2 or 30 mg/kg 5-FU intraperitoneally every 3 days
Protocol: CD44-positive HuH7 cells were subcutaneously transplanted into mice. The mice were then divided into 3 groups (DMSO group: 5 mice; 5-FU group: 4 mice; and IC-2 group: 4 mice). Subsequently, 30 mg/kg of 5-FU, 50 mg/kg of IC-2, or DMSO (as a control), which was a solvent for each chemical, was intraperitoneally administered every 3 days. The body weight and the tumor length and width of each mouse were measured every 3 days. The tumor volume was calculated by using the following equation: Tumor volume=Length×(Width)^2×0.5. The volume at Day 0 was used to normalize each tumor volume, and then a graph was created. To sufficiently evaluate an effect of 5-FU, the dosage that was usually […] in research articles was doubled to set a 5-FU dose. The IC-2 concentration corresponding to a concentration at which a Wnt/β-catenin signal was inhibited in vitro was calculated. Then, the concentration was doubled to set an IC-2 dose.

Structure (SMILES) | proportion of the CD90-expressing cells [1] [%] | proportion of the CD133-expressing cells [2] [%] | proportion of the EpCAM-expressing cells [3] [%] | change in the body weight (CD44-positive HuH7 cells) | therapeutic effect of treating a malignant tumor (tumor volume) (CD44-positive HuH7 cells; 50 mg/kg IC-2 vs 30 mg/kg 5-FU intraperitoneally every 3 days)
O=c1[nH]cc(F)c(=O)[nH]1 [5-FU, reference compound] | 24.1 | 33.3 | 81.4 | no observable change in the body weight | –
O=C1[C@H](Cc2ccccc2)N2C(=O)CCN(C(=O)NCc3ccccc3)[C@H]2CN1Cc1cccc2ccccc12 [IC-2] | 13.5 | 1.45 | 51.1 | no observable change in the body weight | significantly higher therapeutic effect of treating a malignant tumor than that of 5-FU
